This passage reports MIC results from patent USRE40086E1, “Method for treating bacterial infection with novel 7-substituted-9-substituted amino 6-demethyl-6-deoxytetracyclines” (Wyeth Holdings Corporation, priority 1991, dated 2008).

Assay in all cases: MIC, agar dilution
Holding throughout (assay type): cell-based
Background: Agar dilution tests growth on a series of plates holding different concentrations.

The subject of assay [1] is S. aureus UBMS 88-5 (tetM). As to conditions: S. aureus UBMS 88-5 (tetM).
Assay [2] concerns S. aureus UBMS 88-4 (Sensitive). Particulars: S. aureus UBMS 88-4 (Sensitive).
In assay [3] the test system is S. aureus UBMS 90-1 (tetM). Particulars: S. aureus UBMS 90-1 (tetM).
For assay [4], the system named is S. aureus UBMS 90-2 (tetM). Particulars: S. aureus UBMS 90-2 (tetM).
The subject of assay [5] is S. aureus UBMS 90-3 (Sensitive). Particulars: S. aureus UBMS 90-3 (Sensitive).
The subject of assay [6] is S. aureus UBMS 88-7 (tetK). Particulars: S. aureus UBMS 88-7 (tetK).
For assay [7], the system named is S. aureus IVES 2943 (meth. resistant). Particulars: S. aureus IVES 2943 (meth. resistant).
Assay [8] deals with S. aureus IVES 1983 (meth. resistant). Particulars: S. aureus IVES 1983 (meth. resistant).
In assay [9] the test system is S. aureus ATCC 29213 (Sensitive). Particulars: S. aureus ATCC 29213 (Sensitive).
The test system of assay [10] is S. aureus Smith (Sensitive). As to conditions: S. aureus Smith (Sensitive).
Assay [11] has as its system S. haemolyticus AVAH 88-3. As to conditions: S. haemolyticus AVAH 88-3.
The test system of another assay is E. faecalis 12201. As to conditions: E. faecalis 12201.
A further assay deals with E. faecalis ATCC 29212. As to conditions: E. faecalis ATCC 29212.
The next assay relates to E. coli UBMS 88-1 (tetB). As to conditions: E. coli UBMS 88-1 (tetB).
In assay [12] the test system is E. coli UBMS 88-2 (Sensitive). Particulars: E. coli UBMS 88-2 (Sensitive).
The test system of another assay is E. coli UBMS 89-1 (tetM). As to conditions: E. coli UBMS 89-1 (tetM).
Assay [13] has as its system E. coli UBMS 89-2 (Sensitive). Particulars: E. coli UBMS 89-2 (Sensitive).
In the next assay the test system is E. coli ATCC 25922. Particulars: E. coli ATCC 25922.

For orientation: MIC means the lowest concentration that inhibits growth of the organism. Low readings indicate inhibition by little substance, high ones a need for much substance.

≈ marks a conversion by molar mass, not a printed value. A value given as a limit tells only on which side of the number the result lay.

For `CC(=O)OCC(=O)Nc1cc(N(C)C)c2c(c1O)C(=O)C1=C(O)[C@]3(O)C(=O)C(C(N)=O)=C(O)[C@@H](N(C)C)[C@@H]3C[C@@H]1C2` [K, 9-[[(Acetyloxy)acetyl]amino)-7-(dimethylamino)-6-demethyl-6-deoxytetracycline], the minimal inhibitory concentration (MIC) amounted to 0.25 µg/mL (≈ 0.437 µM) in assay [1]; 0.12 µg/mL (≈ 0.21 µM) in assay [2]; 0.25 µg/mL (≈ 0.437 µM) in assay [3]; 0.06 µg/mL (≈ 0.105 µM) in [4]; 0.03 µg/mL (≈ 0.0524 µM) in assay [5]; 32 µg/mL (≈ 55.9 µM) in [6]. In addition, the MIC in assay [7] was 32 µg/mL (≈ 55.9 µM); in assay [8] it was 32 µg/mL (≈ 55.9 µM); in assay [9], “≦0.015 μg/ml”; in assay [10], “≦0.015 μg/ml”; in assay [11] it was 0.5 µg/mL (≈ 0.873 µM); against E. faecalis 12201, 0.25 µg/mL (≈ 0.437 µM). Besides, the MIC against E. faecalis ATCC 29212 was 0.06 µg/mL (≈ 0.105 µM); with E. coli UBMS 88-1 (tetB) it was 16 µg/mL (≈ 27.9 µM); in assay [12], 4 µg/mL (≈ 6.99 µM); in the assay on E. coli UBMS 89-1 (tetM) it was 1 µg/mL (≈ 1.75 µM); in assay [13] it was 8 µg/mL (≈ 14 µM); in the assay with E. coli ATCC 25922, 4 µg/mL (≈ 6.99 µM).
With `CN(C)c1cc(NC(=O)c2ccc([N+](=O)[O-])cc2)c(O)c2c1CC1CC3C(N(C)C)C(O)=C(C(N)=O)C(=O)C3(O)C(O)=C1C2=O` (stereo not drawn) [V, 7-(Dimethylamino)-9-[(4-nitrobenzoyl)amino]-6-demethyl-6-deoxytetracycline], the minimum inhibitory concentration (MIC) was found to be 2 µg/mL (≈ 3.22 µM) in assay [1]; 2 µg/mL (≈ 3.22 µM) in assay [2]; 2 µg/mL (≈ 3.22 µM) in [3]; 1 µg/mL (≈ 1.61 µM) in assay [4]; 0.5 µg/mL (≈ 0.804 µM) in [5]; 4 µg/mL (≈ 6.43 µM) in [6]. In addition, the minimum inhibitory concentration (MIC) in [7] came to 4 µg/mL (≈ 6.43 µM); in assay [8], 8 µg/mL (≈ 12.9 µM); in [9], 0.25 µg/mL (≈ 0.402 µM); in [10] it was 0.5 µg/mL (≈ 0.804 µM); in assay [11], 4 µg/mL (≈ 6.43 µM); against E. faecalis 12201 it was 4 µg/mL (≈ 6.43 µM). In addition, the minimal inhibitory concentration (MIC) in the assay with E. faecalis ATCC 29212 is 4 µg/mL (≈ 6.43 µM); in the assay with E. coli UBMS 88-1 (tetB) it was more than 32 µg/mL; in assay [12] it was more than 32 µg/mL; against E. coli UBMS 89-1 (tetM) it was more than 32 µg/mL; in [13], more than 32 µg/mL; with E. coli ATCC 25922, more than 32 µg/mL.
With `CN(C)c1cc(N(C)C)c2c(c1O)C(=O)C1=C(O)C3(O)C(=O)C(C(N)=O)=C(O)C(N(C)C)C3CC1C2` (stereo not drawn) [C, 7-(Dimethylamino)-9-(dimethylamino)-6-demethyl-6-deoxytetracycline], the minimum inhibitory concentration (MIC) in assay [1] was 0.12 µg/mL (≈ 0.24 µM); in [2], 0.03 µg/mL (≈ 0.0599 µM); in assay [3] it was 0.5 µg/mL (≈ 0.999 µM); in assay [4], 0.12 µg/mL (≈ 0.24 µM); in assay [5] it was 0.03 µg/mL (≈ 0.0599 µM); in assay [6], 0.25 µg/mL (≈ 0.499 µM). Further, the MIC in assay [7] was 1 µg/mL (≈ 2 µM); in [8] it was 1 µg/mL (≈ 2 µM); in assay [9], “≦0.015 μg/ml”; in [10], 0.03 µg/mL (≈ 0.0599 µM); in [11], 0.12 µg/mL (≈ 0.24 µM); against E. faecalis 12201, 0.5 µg/mL (≈ 0.999 µM). Also, the MIC against E. faecalis ATCC 29212 turned out to be 0.06 µg/mL (≈ 0.12 µM); against E. coli UBMS 88-1 (tetB) it was 16 µg/mL (≈ 32 µM); in assay [12], 0.25 µg/mL (≈ 0.499 µM); against E. coli UBMS 89-1 (tetM) it was 1 µg/mL (≈ 2 µM); in assay [13], 0.5 µg/mL (≈ 0.999 µM); against E. coli ATCC 25922 it was 0.25 µg/mL (≈ 0.499 µM).
For `CN(C)c1cc(NC(=O)c2ccco2)c(O)c2c1CC1CC3C(N(C)C)C(O)=C(C(N)=O)C(=O)C3(O)C(O)=C1C2=O` (stereo not drawn) [Y, 7-(Dimethylamino)-9-((2-furanylcarbonyl)amino)-6-demethyl-6-deoxytetracycline], the MIC in [1] is 16 µg/mL (≈ 28.2 µM); in [2] it was 4 µg/mL (≈ 7.06 µM); in assay [3] it was 32 µg/mL (≈ 56.5 µM); in [4], 8 µg/mL (≈ 14.1 µM); in assay [5], 2 µg/mL (≈ 3.53 µM); in assay [6], more than 32 µg/mL. The MIC in assay [7] was more than 32 µg/mL; in [8], more than 32 µg/mL; in [9], 0.5 µg/mL (≈ 0.883 µM); in assay [10], 2 µg/mL (≈ 3.53 µM); in [11] it was more than 32 µg/mL; against E. faecalis 12201, 32 µg/mL (≈ 56.5 µM). Also, the minimum inhibitory concentration (MIC) against E. faecalis ATCC 29212 is 8 µg/mL (≈ 14.1 µM); in the assay with E. coli UBMS 88-1 (tetB), more than 32 µg/mL; in assay [12] it was more than 32 µg/mL; with E. coli UBMS 89-1 (tetM), more than 32 µg/mL; in assay [13] it was more than 32 µg/mL; with E. coli ATCC 25922 it was more than 32 µg/mL.
Regarding `CN(C)c1cc(NC(=O)COCc2ccccc2)c(O)c2c1CC1CC3C(N(C)C)C(O)=C(C(N)=O)C(=O)C3(O)C(O)=C1C2=O` (stereo not drawn) [J, 7-(Dimethylamino)-9-([(phenylmethoxy)acetyl)amino]-6-demethyl-6-deoxytetracycline], the MIC in [1] was found to be 4 µg/mL (≈ 6.44 µM); in [2] it was 2 µg/mL (≈ 3.22 µM); in assay [3], 4 µg/mL (≈ 6.44 µM); in [4], 2 µg/mL (≈ 3.22 µM); in assay [5], 0.5 µg/mL (≈ 0.806 µM); in assay [6], 2 µg/mL (≈ 3.22 µM). For the same compound, the minimum inhibitory concentration (MIC) in assay [7] is 4 µg/mL (≈ 6.44 µM); in [8], 4 µg/mL (≈ 6.44 µM); in [9], 0.06 µg/mL (≈ 0.0967 µM); in assay [10], 0.5 µg/mL (≈ 0.806 µM); in assay [11], 4 µg/mL (≈ 6.44 µM); in the assay on E. faecalis 12201 it was 2 µg/mL (≈ 3.22 µM). In addition, the MIC against E. faecalis ATCC 29212 is 4 µg/mL (≈ 6.44 µM); in the assay with E. coli UBMS 88-1 (tetB), more than 32 µg/mL; in [12], more than 32 µg/mL; with E. coli UBMS 89-1 (tetM), more than 32 µg/mL; in [13], more than 32 µg/mL; against E. coli ATCC 25922, 32 µg/mL (≈ 51.6 µM).
Turning to `CN(C)c1cc(NC(=O)CO)c(O)c2c1CC1CC3C(N(C)C)C(O)=C(C(N)=O)C(=O)C3(O)C(O)=C1C2=O` (stereo not drawn) [L, 7-(Dimethylamino)-9-[(hydroxyacetyl)amino]-6-demethyl-6-deoxytetracycline], the minimum inhibitory concentration (MIC) in [1] was 4 µg/mL (≈ 7.54 µM); in assay [2] it was 4 µg/mL (≈ 7.54 µM); in [3] it was 8 µg/mL (≈ 15.1 µM); in [4], 2 µg/mL (≈ 3.77 µM); in assay [5], 1 µg/mL (≈ 1.88 µM); in assay [6] it was more than 32 µg/mL. The minimum inhibitory concentration (MIC) was more than 32 µg/mL in assay [7]; more than 32 µg/mL in assay [8]; 0.5 µg/mL (≈ 0.942 µM) in assay [9]; 0.5 µg/mL (≈ 0.942 µM) in assay [10]; 16 µg/mL (≈ 30.2 µM) in assay [11]; 4 µg/mL (≈ 7.54 µM) in the assay on E. faecalis 12201. For the same compound, the minimal inhibitory concentration (MIC) was 2 µg/mL (≈ 3.77 µM) with E. faecalis ATCC 29212; more than 32 µg/mL in the assay on E. coli UBMS 88-1 (tetB); more than 32 µg/mL in assay [12]; more than 32 µg/mL in the assay with E. coli UBMS 89-1 (tetM); more than 32 µg/mL in [13]; 32 µg/mL (≈ 60.3 µM) against E. coli ATCC 25922.
With `CCN(CC)c1cc(NC(C)=O)c(O)c2c1C[C@H]1C[C@H]3[C@H](N(C)C)C(O)=C(C(N)=O)C(=O)[C@@]3(O)C(O)=C1C2=O.O=S(=O)(O)O.O=S(=O)(O)O` [Compound E, 9-(Acetylamino)-7-(diethylamino)-6-demethyl-6-deoxytetracycline disulfate], the MIC in assay [1] is 4 µg/mL; in [2], 0.5 µg/mL; in [3] it was 8 µg/mL; in assay [4], 2 µg/mL; in [5], 0.5 µg/mL; in [6], 4 µg/mL. Further, the minimum inhibitory concentration (MIC) is 8 µg/mL in assay [7]; 16 µg/mL in [8]; “≦0.015 μg/ml” in assay [9]; 0.5 µg/mL in assay [10]; 8 µg/mL in [11]; 16 µg/mL in the assay with E. faecalis 12201. In addition, the minimum inhibitory concentration (MIC) is 2.0 µg/mL against E. faecalis ATCC 29212; more than 32 µg/mL with E. coli UBMS 88-1 (tetB); more than 32 µg/mL in assay [12]; 32 µg/mL against E. coli UBMS 89-1 (tetM); more than 32 µg/mL in [13]; 32 µg/mL against E. coli ATCC 25922.
Regarding “[7S-(7α,10aα) ]-C(9-(Aminocarbonyl)-7-(dimethylamino)-5,5a,6,6a,7,10,10a,12-octahydro-1,8,10a,11-tetrahydroxy-10,12-dioxo-2-naphthacenyl]amino]oxoacetic acid ethyl ester”, the MIC was 32 µg/mL in assay [1]; 2 µg/mL in [2]; more than 32 µg/mL in [3]; 32 µg/mL in assay [4]; 1 µg/mL in assay [5]; 8 µg/mL in assay [6]. Besides, the MIC in [7] is 32 µg/mL; in assay [8], more than 32 µg/mL; in assay [9], 0.25 µg/mL; in assay [10] it was 2 µg/mL; in assay [11] it was 4 µg/mL; in the assay on E. faecalis 12201 it was 32 µg/mL. Moreover, the minimum inhibitory concentration (MIC) against E. faecalis ATCC 29212 was 32 µg/mL; against E. coli UBMS 88-1 (tetB), more than 32 µg/mL; in [12], more than 32 µg/mL; in the assay on E. coli UBMS 89-1 (tetM) it was more than 32 µg/mL; in assay [13], more than 32 µg/mL; against E. coli ATCC 25922, 32 µg/mL.
